These results are taken from patent EP4201929A1, “QUINOXALINE THIOREDOXIN REDUCTASE INHIBITORS” (geneXplain GmbH, priority 2021, dated 2023).

The subject of one series is MCF7 cells. Description: Apoptosis detection by FACS (Annexin V staining). In kind it is cell-based. Particulars: 2 µM, 24h treatment. The protocol:
Cells were placed on 12-well plate at a density of 30000/cm^2 and treated with compounds. After 24h incubation cells were harvested by trypsinization, fixed with 70% ethanol, treated with RNase A (0.25 mg/ml) and stained with Annexin V according to manufacturer's instructions (Thermo Fisher Scientific). Samples were analyzed on a Becton Dickinson FACScan. Data were analyzed by the CellQuest software, version 3.2.1.
To find out whether the growth suppression by 1d*HCl is due to triggering cell death by apoptosis, we performed the Annexin V-mediated staining of phosphatidylserine, exposed on surface of cells undergoing apoptotic cell death. We detected Annexin V-positive cells using FACS.

Series [1] deals with reactive oxygen species (ROS). Description: Oxidative stress measurement (DCFH-DA-based assay). It counts as cell-based. As to the method: Cells were treated with compounds and incubated 30 min with 10 µM DCF-DA in serum free medium. Afterward, cells were trypsinized, washed with PBS and fluorescence was analyzed by a FACSCalibur flow cytometer (BD Biosciences) using FL1-H channel.
To get insight into the mechanism of the anti-tumor activity of 1d*HCl, we tested the level of oxidative stress upon treatment. We measured the induction of reactive oxygen species (ROS), using 2'-7'-Dichlorodihydrofluorescein diacetate (DCFH-DA)-based assay. […] After 8h of treatment, the induction of reactive oxygen species (ROS) was much higher.

The target in series [2] is T1, recombinant purified TrxRl (Homo sapiens, UniProt Q16881).
T1 construct: made in house; host or cells: Release Factor 1-depleted E. coli strain
Description: TrxR1 enzymatic activity measurement in vitro. Particulars: recombinant purified enzyme in vitro. It counts as biochemical. As to the method: (§1) TrxRl enzyme was recombinantly produced with high Sec contents in a specific Release Factor 1-depleted E. coli strain and purified as previously described (Arnér ESJ, Holmgren A, in Current Protocols in Toxicology, Maines M, Costa L, Reed D, Sassa S, Eds. (John Wiley & Sons, Inc., New York, 2000), pp. 7.4.1-7.4.14). TrxRl and GSR (Sigma) recombinant enzyme assays were performed in a reaction buffer containing 50 mM Tris pH 7.5 with 2 mM EDTA and 0.1 mg/mL bovine serum albumin as described previously (Arnér ESJ, Holmgren A, in Current Protocols in Toxicology, Maines M, Costa L, Reed D, Sassa S, Eds. (John Wiley & Sons, Inc., New York, 2000), pp. 7.4.1-7.4.14). Briefly, assays were performed in triplicate using 96-well plates, with activity inferred from absorbance changes using a Spectra Max plate reader. Results of recombinant enzyme assays were normalized to DMSO and to no enzyme controls.
We used recombinant purified TrxRl and GR in an in vitro assay as described in methods section.

A further series addresses T2, TrxRl (Homo sapiens, UniProt Q16881).
T2 construct: endogenous in cells; host or cells: MCF7 (A37, A39); HCT116 (A39)
Description: TrxR1 enzymatic activity measurement in cellulo (TXN-dependent insulin reduction assay). It counts as cell-based. Particulars: MCF7 breast cancer cells, 5 or 10 µM, 2h after treatment, depending on concentration. As to the method:
MCF7 cells were treated with 5 or 10 µM 1d*HCl or DMSO as a control. Cells were collected 2 h and 6 h after treatment, washed twice with PBS, and lysed in 100 µL of lysis buffer (50 mM Tris-HCl, 2mM EDTA, 0.15 M NaCl, 1% Triton X-100, protease inhibitors (Roche), pH 7.5). Cells were scraped, collected and snap frozen. After three freeze-thawing cycles the lysate was spinned down, supernatant collected and protein concentration measured using Pierce bicinchoninic acid assay kit (BCA, from Thermofisher Scientific) according to the manufacturer's protocol. To measure TrxR activity, the end-point TXN-dependent insulin reduction assay was used, essentially as described previously (WC Stafford, et al, Irreversible inhibition of cytosolic thioredoxin reductase 1 as a mechanistic basis for anti-cancer therapy, Sci Transl Med (2018), Feb 14;10(428):eaaf7444. doi: 10.1126/scitranslmed.aaf7444). […] After 0, 15 and 30 min, 10 µL aliquots were taken and combined with 6 M guanidine-HCl and 2.5 mM DTNB in 96-well plates (PerkinElmer), whereupon the absorbance at 412 nm was measured using microplate spectrophotometer (TECAN). Levels of active TrxR were normalised to DMSO control samples from each treatment timepoint.
Having established that 1d*HCl inhibits TrxR1activity in vitro, it was important to confirm that 1d*HCl targets TrxRl in living cells. […]

The test system of another series is γH2AX. Nature of the series: DNA damage detection by Western blot (phosphorylated histone H2AX). In kind it is cell-based. Conditions: HCT116 and MCF7. As to the method:
The extraction of total cell lysates and western blot were performed according to standard procedure. The antibodies used for immunoblotting were: p53 (sc-126, Santa Cruz Biotechnology), γH2AX (#07-164, Millipore), TrxRl 19A1 (AbFrontier). Anti-β-actin monoclonal antibody (Millipore) was used as loading control. The horseradish peroxidase-coupled secondary antibodies (Jackson ImmunoResearch) and SuperSignal™ West Dura Extended Duration Substrate detection system (Thermo Fischer Scientific), and images were visualized using ChemiDoc Imaging System (Bio-Rad).
The majority of chemotherapeutic drugs used currently in the clinic, are DNA damaging drugs. Induction of DNA damage is a very efficient way of elimination of cancer cells. Unfortunately, these drugs induce DNA damage also in normal cells, leading to severe side effects. We addressed the question whether 1d*HCl induces DNA damage. We tested this by detection of a hallmark of DNA damage, induction of phosphorylated histone H2AX, so called γH2AX. We used anti-yH2AX antibody to detect it in cells treated with 1d*HCl.
Background: Immunoblotting shows a protein as a band on a membrane.

For the next series, the target named is GR (Homo sapiens, UniProt P00390). Description: GR enzymatic activity measurement in vitro. In kind it is biochemical. On the set-up: purchased Sigma. Conditions: recombinant purified enzyme in vitro. As to the method: as §1
Glutathione reductase inhibition assay was performed according to (S. Busker, W. Qian, M. Haraldsson, B. Espinosa, L. Johansson, S. Attarha, I. Kolosenko, J. Liu, M. Dagnell, D. Grandér, E.S.J. Arnér, K. PokrovskajaTamm, B.D.G. Page. Irreversible TrxRl inhibitors block STAT3 activity and induce cancer cell death, Sci. Adv., 6 (2020), 10.1126/sciadv.aax7945). 5 or 10 µM compound was incubated with 175 µM GSH in TE buffer. […]

T1 sequence (Q16881 151-649): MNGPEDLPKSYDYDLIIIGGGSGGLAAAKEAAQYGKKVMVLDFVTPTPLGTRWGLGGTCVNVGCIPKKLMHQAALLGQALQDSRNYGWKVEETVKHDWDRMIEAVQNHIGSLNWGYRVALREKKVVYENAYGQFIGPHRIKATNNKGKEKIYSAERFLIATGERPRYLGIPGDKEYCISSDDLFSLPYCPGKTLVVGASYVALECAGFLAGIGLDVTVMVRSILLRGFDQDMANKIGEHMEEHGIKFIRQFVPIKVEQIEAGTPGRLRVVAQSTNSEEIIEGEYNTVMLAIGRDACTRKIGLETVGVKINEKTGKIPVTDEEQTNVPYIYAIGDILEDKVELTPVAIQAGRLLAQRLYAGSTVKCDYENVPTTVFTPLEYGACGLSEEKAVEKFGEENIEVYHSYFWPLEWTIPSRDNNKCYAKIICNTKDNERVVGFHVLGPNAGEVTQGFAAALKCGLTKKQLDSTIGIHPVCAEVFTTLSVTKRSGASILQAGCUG
T2 sequence (Q16881 151-649): as above
Sequence of GR (P00390 44-522): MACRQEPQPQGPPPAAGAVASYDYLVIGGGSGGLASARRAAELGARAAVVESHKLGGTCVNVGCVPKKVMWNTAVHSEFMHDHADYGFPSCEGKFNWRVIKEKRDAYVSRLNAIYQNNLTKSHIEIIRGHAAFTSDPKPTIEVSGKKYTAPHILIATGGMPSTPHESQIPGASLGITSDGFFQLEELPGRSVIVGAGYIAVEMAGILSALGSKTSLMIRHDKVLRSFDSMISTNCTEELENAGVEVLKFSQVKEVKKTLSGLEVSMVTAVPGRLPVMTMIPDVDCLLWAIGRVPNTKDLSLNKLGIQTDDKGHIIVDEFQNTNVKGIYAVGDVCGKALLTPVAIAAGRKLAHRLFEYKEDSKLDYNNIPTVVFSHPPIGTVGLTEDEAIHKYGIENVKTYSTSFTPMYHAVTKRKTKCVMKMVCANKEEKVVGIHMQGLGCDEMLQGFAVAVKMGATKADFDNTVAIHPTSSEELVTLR

For `Cl.N#Cc1c(-c2cccnc2)[n+]([O-])c2cc(F)c(N3CCOCC3)cc2[n+]1[O-]` [1d*HCl, 6-Fluoro-7-(morpholin-4-yl)-3-(pyridin-3-yl)quinoxaline-2-carbonitrile-1,4-dioxide hydrochloride], the “Annexin V-positive cells” value in the series on MCF7 cells is on record as “induced Annexin V-positive cells statistically significantly”. Further, the “DCF fluorescence (induction of reactive oxygen species)” value in series [1] (2h after treatment) was “significant increase in DCF fluorescence”. Moreover, the “induction of reactive oxygen species (ROS)” value in series [1] (after 8h of treatment) is listed as “much higher”. Besides, the “enzymatic activity of TrxRl” value in series [2] is “efficiently inhibited the enzymatic activity of TrxRl in a dose- and time-dependent manner”. On TrxRl, the “inhibition of TrxRl activity in cells” value was 70-80%. Further, in the series on γH2AX, the “induction of γH2AX” value is on record as “negligible”. Besides, the GR activity result at GR was “did not inhibit GR activity”.
